Assay results published in patent US9365572B2, “PI3K and/or mTOR inhibitor” (XUANZHU PHARMA CO., LTD., priority 2012, dated 2016).

Key:
[1] = target: Adenosine A3 (Homo sapiens (Human), UniProt P0DMS8); experiment: Radioligand binding assay No. 200720; details: test substance 10 μM, read-out: Inhibitory rate (%), Adenosine A3
[2] = target: BRAF V600E (Homo sapiens (Human), UniProt P15056, V600E); experiment: Kinase selectivity, Lanthascreen analysis method; type: biochemical
[3] = test system: Transporter, GABA; experiment: Radioligand binding assay No. 226400; details: test substance 10 μM; rat
[4] = target: Serotonin (5-Hydroxytryptamine) 5-HT2B (Homo sapiens (Human), UniProt P41595); experiment: Radioligand binding assay No. 271700; details: test substance 10 μM, read-out: Inhibitory rate (%), Serotonin (5-Hydroxytryptamine) 5-HT2B
[5] = test system: GABAA, Flunitrazepam, Central; experiment: Radioligand binding assay No. 226600; details: test substance 10 μM; rat
[6] = target: Muscarinic M1 (Homo sapiens (Human), UniProt P11229); experiment: Radioligand binding assay No. 252610; details: test substance 10 μM, read-out: Inhibitory rate (%), Muscarinic M1
[7] = target: Endothelin ETA (Homo sapiens (Human), UniProt P25101); experiment: Radioligand binding assay No. 224010; details: test substance 10 μM, read-out: Inhibitory rate (%), Endothelin ETA
[8] = target: Tachykinin NK1 (Homo sapiens (Human), UniProt P25103); experiment: Radioligand binding assay No. 255520; details: test substance 10 μM, read-out: Inhibitory rate (%), Tachykinin NK1
[9] = target: mTOR (Homo sapiens (Human), UniProt P42345); experiment: mTOR enzymatic assay; type: biochemical; details: read-out: In vitro enzymatic activity (IC50) mTOR
Protocol: (§1) Assay 1-2: In Vitro Enzymatic Inhibitory Activity of the Present Compound
1. Preparation of Agents:
(§2) • 1.1 1-fold kinase buffer: 50 mM HEPES, pH 7.5, 10 mM MgCl2, 1 mM EGTA, 3 mM MnCl2, 0.01% Tween-20, 2 mM DTT; • 1.2 4-fold kinase solution: mTOR kinase was added to 1-fold kinase buffer to form 4-fold kinase solution with a final concentration of 2.5 nM; • 1.3 2-fold substrate and ATP solution: the substrate 4EBP1 and ATP were added to 1-fold kinase buffer to form 2-fold substrate solution with final concentration of 50 nM of 4EBP1 and 10.8 μM of ATP; • 1.4 4-fold test substance solutions: 100-fold test substance solutions in different gradient concentrations were formulated with 100% DMSO, and diluted by 25 folds with 1-fold kinase buffer to form 4-fold test substance solutions in different gradient concentrations. • 1.5 Preparation of detection solution: a detection solution containing 2-fold final concentrations of EDTA and 4EBP1 phosphorylated antibody was formulated, wherein the final concentration for EDTA was 8 mM, and the final concentration for the 4EBP phosphorylated antibody was 2 nM. 2. Procedure • 2.1 To each well of a 384-well plate was added 2.5 μL of the 4-fold test substance solutions in gradient concentrations. The replication was made. • 2.2 To each well was added 2.5 μL of 4-fold kinase solution, and then the plate was incubated for 10 mins; • 2.3 Then to each well was added 5 μL/of 2-fold substrate and ATP solution, and then the plate was incubated at room temperature for 1 hour; • 2.4 Finally, 10 μL of the detection solution was added to terminate the reaction. After 60 mins, the data Lance signal ([…]) was read from Envision. 3 Data treatment Inhibition rate (%)=[…] • wherein: • maximum refers to the reading at the DMSO control well. • minimum refers to the reading at the control well without kinase, • The data was input into Graphpad Prism 5.0 to plot and obtain the curve and IC50 value. PI3Kα Enzymatic Assay 1. […] After 15 mins, the data Lance signal ([…]) was read from Envision. 3 Data treatment Inhibition rate (%)=100−(sample value−minimum)/(maximum−minimum)×100 • wherein: • maximum refers to the reading at the control well without kinase, • minimum refers to the reading at the DMSO control well, • The data was input into Graphpad Prism 5.0 to plot and obtain the curve and IC50 value. […]

[10] = target: PI3Kα (Homo sapiens (Human), UniProt P42336); experiment: PI3Kα enzymatic assay; type: biochemical; details: read-out: In vitro enzymatic activity (IC50) PI3Kα
Protocol: as §1, §2

Sequence of Serotonin (5-Hydroxytryptamine) 5-HT2B (P41595 whole entry): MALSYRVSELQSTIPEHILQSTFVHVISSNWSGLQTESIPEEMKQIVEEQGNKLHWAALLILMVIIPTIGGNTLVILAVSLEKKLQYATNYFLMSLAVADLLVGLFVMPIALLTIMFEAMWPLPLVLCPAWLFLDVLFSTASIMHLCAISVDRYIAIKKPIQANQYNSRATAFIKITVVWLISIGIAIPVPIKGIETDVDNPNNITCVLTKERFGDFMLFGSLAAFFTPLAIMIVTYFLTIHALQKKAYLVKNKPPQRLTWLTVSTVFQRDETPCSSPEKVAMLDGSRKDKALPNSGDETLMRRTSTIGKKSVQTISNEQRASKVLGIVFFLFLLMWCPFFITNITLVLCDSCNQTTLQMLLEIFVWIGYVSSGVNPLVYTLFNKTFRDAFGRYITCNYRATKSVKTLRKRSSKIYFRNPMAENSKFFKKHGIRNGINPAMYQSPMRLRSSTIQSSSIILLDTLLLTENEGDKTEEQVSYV
Sequence of BRAF V600E (P15056 whole entry V600E): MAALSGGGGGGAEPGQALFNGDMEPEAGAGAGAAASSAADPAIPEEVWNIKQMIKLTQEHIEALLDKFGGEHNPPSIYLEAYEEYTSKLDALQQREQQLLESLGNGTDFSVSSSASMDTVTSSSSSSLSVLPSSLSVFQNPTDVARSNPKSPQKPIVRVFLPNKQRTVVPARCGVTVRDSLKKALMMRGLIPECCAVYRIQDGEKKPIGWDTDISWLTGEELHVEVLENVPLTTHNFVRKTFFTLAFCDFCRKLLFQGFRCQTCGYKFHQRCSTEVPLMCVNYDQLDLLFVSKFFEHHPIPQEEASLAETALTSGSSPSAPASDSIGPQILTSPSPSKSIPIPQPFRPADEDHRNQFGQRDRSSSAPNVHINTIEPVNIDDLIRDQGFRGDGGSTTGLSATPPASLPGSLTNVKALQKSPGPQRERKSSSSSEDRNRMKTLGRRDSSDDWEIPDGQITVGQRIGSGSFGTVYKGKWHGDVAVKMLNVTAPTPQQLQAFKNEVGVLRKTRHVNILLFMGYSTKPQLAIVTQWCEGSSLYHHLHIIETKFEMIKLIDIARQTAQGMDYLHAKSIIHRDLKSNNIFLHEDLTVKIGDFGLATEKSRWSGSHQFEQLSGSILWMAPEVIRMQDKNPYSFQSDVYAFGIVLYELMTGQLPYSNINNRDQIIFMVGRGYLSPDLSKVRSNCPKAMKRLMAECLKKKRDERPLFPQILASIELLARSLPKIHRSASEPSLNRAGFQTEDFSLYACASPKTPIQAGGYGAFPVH
Sequence of PI3Kα (P42336 whole entry): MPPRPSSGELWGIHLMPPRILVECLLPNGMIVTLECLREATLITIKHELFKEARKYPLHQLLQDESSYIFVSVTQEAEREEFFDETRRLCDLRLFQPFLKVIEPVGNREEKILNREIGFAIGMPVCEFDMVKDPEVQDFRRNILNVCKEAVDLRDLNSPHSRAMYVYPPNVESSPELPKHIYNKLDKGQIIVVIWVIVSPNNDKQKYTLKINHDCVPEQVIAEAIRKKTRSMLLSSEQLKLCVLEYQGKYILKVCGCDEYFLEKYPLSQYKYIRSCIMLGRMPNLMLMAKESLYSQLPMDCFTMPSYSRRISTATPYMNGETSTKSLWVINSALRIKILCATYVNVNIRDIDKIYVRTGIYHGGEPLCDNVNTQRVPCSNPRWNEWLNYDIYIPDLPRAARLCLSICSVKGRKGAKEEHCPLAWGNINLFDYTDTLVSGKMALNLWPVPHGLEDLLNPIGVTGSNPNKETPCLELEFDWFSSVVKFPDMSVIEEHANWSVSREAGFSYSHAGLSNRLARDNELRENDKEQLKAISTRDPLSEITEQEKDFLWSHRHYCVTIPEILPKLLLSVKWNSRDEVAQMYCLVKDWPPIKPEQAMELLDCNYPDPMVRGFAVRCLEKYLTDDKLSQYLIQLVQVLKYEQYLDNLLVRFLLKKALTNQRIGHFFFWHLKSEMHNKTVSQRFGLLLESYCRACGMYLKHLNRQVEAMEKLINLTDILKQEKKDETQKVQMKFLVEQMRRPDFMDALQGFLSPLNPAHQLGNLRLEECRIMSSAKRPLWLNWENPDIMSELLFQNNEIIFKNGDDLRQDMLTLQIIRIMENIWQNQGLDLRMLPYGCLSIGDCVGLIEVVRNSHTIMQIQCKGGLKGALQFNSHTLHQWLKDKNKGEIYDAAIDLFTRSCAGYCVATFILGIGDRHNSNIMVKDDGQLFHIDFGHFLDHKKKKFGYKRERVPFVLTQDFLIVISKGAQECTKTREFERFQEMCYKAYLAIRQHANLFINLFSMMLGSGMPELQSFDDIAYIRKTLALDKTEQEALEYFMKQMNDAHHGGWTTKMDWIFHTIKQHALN
Sequence of PI3Kα (P27986 whole entry partner): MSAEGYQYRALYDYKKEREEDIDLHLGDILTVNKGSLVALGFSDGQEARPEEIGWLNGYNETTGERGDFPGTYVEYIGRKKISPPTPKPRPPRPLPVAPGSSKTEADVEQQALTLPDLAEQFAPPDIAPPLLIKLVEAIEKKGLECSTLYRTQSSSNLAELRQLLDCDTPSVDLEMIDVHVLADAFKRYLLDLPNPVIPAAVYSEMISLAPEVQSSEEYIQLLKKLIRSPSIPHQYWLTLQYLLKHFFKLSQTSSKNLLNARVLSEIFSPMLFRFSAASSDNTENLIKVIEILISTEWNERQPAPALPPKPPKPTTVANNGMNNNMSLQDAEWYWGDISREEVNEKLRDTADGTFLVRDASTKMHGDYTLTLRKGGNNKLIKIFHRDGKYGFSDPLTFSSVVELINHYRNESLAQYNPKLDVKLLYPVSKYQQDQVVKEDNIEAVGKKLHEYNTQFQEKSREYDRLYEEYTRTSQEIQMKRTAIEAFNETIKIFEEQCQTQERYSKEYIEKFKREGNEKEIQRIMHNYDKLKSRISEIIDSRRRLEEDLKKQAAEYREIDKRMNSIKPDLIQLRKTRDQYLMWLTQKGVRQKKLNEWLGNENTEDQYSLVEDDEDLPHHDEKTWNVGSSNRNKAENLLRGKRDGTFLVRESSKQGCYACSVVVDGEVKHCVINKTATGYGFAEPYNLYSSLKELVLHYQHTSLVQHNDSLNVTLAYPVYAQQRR
Sequence of Endothelin ETA (P25101 21-427): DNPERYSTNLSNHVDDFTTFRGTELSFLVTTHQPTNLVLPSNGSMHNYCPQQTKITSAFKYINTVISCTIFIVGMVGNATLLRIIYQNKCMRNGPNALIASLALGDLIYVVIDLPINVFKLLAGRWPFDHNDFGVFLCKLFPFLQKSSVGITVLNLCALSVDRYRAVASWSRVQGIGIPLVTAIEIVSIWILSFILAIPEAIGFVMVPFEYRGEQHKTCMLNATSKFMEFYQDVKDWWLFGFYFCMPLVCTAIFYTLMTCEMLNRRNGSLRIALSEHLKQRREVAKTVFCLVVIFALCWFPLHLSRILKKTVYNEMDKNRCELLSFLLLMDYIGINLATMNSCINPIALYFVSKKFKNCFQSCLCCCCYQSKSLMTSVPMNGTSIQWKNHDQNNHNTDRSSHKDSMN
Sequence of Adenosine A3 (P0DMS8 whole entry): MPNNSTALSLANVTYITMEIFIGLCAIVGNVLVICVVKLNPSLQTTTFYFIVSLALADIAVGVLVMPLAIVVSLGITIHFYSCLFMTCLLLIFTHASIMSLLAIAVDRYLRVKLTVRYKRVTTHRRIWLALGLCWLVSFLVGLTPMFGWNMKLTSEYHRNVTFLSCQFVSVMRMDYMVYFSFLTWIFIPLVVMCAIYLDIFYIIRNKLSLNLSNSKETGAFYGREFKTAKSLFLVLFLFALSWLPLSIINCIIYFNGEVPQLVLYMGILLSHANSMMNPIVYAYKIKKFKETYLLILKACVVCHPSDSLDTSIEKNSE
Sequence of Tachykinin NK1 (P25103 whole entry): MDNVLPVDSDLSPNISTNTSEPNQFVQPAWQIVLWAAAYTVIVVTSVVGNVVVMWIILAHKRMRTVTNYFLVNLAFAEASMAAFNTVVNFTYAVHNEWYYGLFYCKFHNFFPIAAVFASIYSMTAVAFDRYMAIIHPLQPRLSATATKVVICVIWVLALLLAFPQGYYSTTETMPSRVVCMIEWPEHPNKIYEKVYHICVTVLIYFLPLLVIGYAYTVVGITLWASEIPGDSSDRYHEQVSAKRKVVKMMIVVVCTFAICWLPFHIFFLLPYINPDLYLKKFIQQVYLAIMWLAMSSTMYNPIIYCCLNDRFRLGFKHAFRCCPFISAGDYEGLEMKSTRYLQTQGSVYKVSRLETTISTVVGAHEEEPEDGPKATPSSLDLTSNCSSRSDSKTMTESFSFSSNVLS
Sequence of Muscarinic M1 (P11229 whole entry): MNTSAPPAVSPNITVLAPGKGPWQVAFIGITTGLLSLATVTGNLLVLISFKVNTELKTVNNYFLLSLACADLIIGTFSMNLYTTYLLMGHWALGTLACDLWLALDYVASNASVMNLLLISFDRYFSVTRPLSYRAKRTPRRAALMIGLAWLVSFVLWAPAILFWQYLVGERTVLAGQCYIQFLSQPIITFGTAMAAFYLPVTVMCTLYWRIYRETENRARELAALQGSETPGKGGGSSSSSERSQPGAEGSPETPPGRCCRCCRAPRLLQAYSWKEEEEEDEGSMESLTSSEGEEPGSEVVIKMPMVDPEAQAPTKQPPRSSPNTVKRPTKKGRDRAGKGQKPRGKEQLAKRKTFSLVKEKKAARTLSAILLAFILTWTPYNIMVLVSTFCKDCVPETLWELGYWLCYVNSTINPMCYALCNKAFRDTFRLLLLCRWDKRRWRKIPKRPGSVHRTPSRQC

| IC50 [9] [nM] | IC50 [10] [nM] | Structure (SMILES) | inhibition at 10 µM [1] [%] | IC50 [2] [nM] | Inhibitory rate (%), Transporter, GABA [3] [%] | inhibition at 10 µM [4] [%] | Inhibitory rate (%), GABAA, Flunitrazepam, Central [5] [%] | inhibition at 10 µM [6] [%] | inhibition at 10 µM [7] [%] | inhibition at 10 µM [8] [%] |
| --- | --- | --- | --- | --- | --- | --- | --- | --- | --- | --- |
| – | – | Nc1ccc(-c2ccc3ncc4c(=O)[nH]c(=O)n(-c5cccc(C(F)(F)F)c5)c4c3n2)cn1 [Compound 5, 9-(6-aminopyridin-3-yl)-1-(3-(trifluoromethyl)phenyl)pyrimido[5,4-c][1,5]naphthyridine-2,4(1H,3H)-dione] | 11 | > 10000 | 12 | 13 | 34 | 18 | 3 | 20 |
| 1.12 | 15 | O=c1[nH]c(=O)n(-c2cccc(C(F)(F)F)c2)c2c1cnc1ccc(-c3cnc4[nH]ccc4c3)nc12 [Compound 30, 9-(1H-pyrrolo[2,3-b]pyridin-5-yl)-1-(3-(trifluoromethyl)phenyl)pyrimido[5,4-c][1,5]naphthyridine-2,4(1H,3H)-dione] | – | – | – | – | – | – | – | – |
